Results on 15 molecules are retold here after US20060035847A1, “Glucopyranosyloxyprazole derivatives and use thereof in medicines” (KISSEI PHARMACEUTICAL CO., LTD., priority 2000, published 2006).

One may read the IC50 as the midpoint of a concentration-inhibition curve.

This experiment concerns the target T1, human SGLT2 (Homo sapiens, UniProt P31639, I433V).
T1 construct: expressed in transfected cells; host or cells: COS-7 cells (RIKEN CELL BANK RCB0539), transient, electroporation
T1 sequence (P31639 1-672 I433V): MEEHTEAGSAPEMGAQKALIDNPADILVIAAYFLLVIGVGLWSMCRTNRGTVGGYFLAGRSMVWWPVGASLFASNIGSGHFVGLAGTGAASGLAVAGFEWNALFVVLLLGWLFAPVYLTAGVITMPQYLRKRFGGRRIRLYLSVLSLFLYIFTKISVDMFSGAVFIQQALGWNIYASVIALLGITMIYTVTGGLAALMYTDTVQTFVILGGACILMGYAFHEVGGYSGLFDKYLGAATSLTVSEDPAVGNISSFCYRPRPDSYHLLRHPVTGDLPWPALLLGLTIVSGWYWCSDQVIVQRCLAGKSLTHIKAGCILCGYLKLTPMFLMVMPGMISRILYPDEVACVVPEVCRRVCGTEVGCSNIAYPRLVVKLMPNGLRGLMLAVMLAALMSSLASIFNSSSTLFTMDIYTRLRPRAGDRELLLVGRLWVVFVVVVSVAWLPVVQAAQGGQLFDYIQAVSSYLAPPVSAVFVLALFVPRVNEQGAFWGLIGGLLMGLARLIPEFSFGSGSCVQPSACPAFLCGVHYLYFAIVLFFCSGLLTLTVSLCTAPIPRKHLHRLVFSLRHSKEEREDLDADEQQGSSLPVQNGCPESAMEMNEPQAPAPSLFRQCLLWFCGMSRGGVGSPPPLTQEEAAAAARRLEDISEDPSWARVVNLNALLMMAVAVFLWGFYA
Description: Assay for inhibitory effect on human SGLT2 activity (methyl-α-D-glucopyranoside uptake in COS-7 cells transiently expressing human SGLT2). It counts as cell-based. Particulars: inhibition of methyl-α-D-glucopyranoside uptake, COS-7 cells expressing human SGLT2, 37° C., 2 hours. The method, then: Assay for Inhibitory Effect on Human SGLT2 Activity
1) Construction of the Plasmid Vector Expressing Human SGLT2
Preparation of the cDNA library for PCR amplification was performed by reverse transcription of a total RNA deprived from human kidney (Ori gene) with oligo dT as the primer, using SUPERSCRIPT Preamplification System (Gibco-BRL: LIFE TECHNOLOGIES). The DNA fragment coding for human SGLT2 was amplified by the PCR reaction, in which the human kidney cDNA library described above was used as the template and the following oligo nucleotides 0702F and 0712R, presented as sequence number 1 and 2 respectively, were used as the primers. The amplified DNA fragment was ligated into pCR-Blunt (Invitrogen), a vector for cloning, according to standard method of the kit. The Escherichia coli HB101 was transformed according to usual method and then selection of the transformants was performed on the LB agar medium containing 50 μg/mL of kanamycin. After plasmid DNA was extracted and purified from the one of the transformants, amplifying of the DNA fragment coding for human SGLT2 was performed by the PCR reaction, in which the following oligo nucleotides 0714F and 0715R, presented as sequence number 3 and 4 respectively, were used as the primers. The amplified DNA fragment was digested with restriction enzymes, Xho I and Hind III, and then purified with Wizard Purification System (Promega). This purified DNA fragment was inserted at into the corresponding restriction sites of pcDNA3.1 (−) Myc/His—B (Invitrogen), a vector for expressing of fusion protein. The Escherichia coli HB101 was transformed according to usual method and then selection of the transformant was performed on the LB agar medium containing 100 μg/mL of ampicillin. After plasmid DNA was extracted and purified from this transformant, the base sequence of the DNA fragment inserted at the multi-cloning sites of the vector pcDNA3.1 (−) Myc/His—B was analyzed. […] Sequentially, a clone in which valine is substituted for isoleucine-433 was obtained. This plasmid vector expressing human SGLT2 in which the peptide presented as sequence number 5 is fused to the carboxyl terminal alanine residue was designated KL29.
2) Preparation of the Cells Expressing Transiently Human SGLT2
KL29, the plasmid coding human SGLT2, was transfected into COS-7 cells (RIKEN CELL BANK RCB0539) by electroporation. Electroporation was performed with GENE PULSER II (Bio-Rad Laboratories) under the condition: 0.290 kV, 975 μF, 2×10^6 cells of COS-7 cell and 20 μg of KL29 in 500 μL of OPTI-MEM I medium (Gibco-BRL: LIFE TECHNOLOGIES) in the 0.4 cm type cuvette. After the gene transfer, the cells were harvested by centrifugation and resuspended with OPTI-MEM I medium (1 mL/cuvette). To each well in 96-wells plate, 125 μL of this cell suspension was added. After overnight culture at 37° C. under 5% CO2, 125 μL of DMEM medium which is containing 10% of fetal bovine serum (Sanko Jyunyaku), […] sodium penicillin G (Gibco-BRL: LIFE TECHNOLOGIES), 100 μg/mL streptomycin sulfate (Gibco-BRL: LIFE TECHNOLOGIES) was added to each well. These cells were cultured until the next day and then they were used for the measurement of the inhibitory activity against the uptake of methyl-α-D-glucopyranoside.
3) Measurement of the Inhibitory Activity Against the Uptake of methyl-α-D-glucopyranoside
After a test compounds was dissolved in dimethyl sulfoxide and diluted with the uptake buffer (a pH 7.4 buffer containing 140 mM sodium chloride, 2 mM potassium chloride, 1 mM calcium chloride, 1 mM magnesium chloride, 5 mM methyl-α-D-glucopyranoside, 10 mM 2-[4-(2-hydroxyethyl)-1-piperazinyl]ethane sulfonic acid and 5 mM tris(hydroxymethyl)aminomethane), each diluent was used as test sample for measurement of the inhibitory activity. […]
As for `Cc1[nH]nc(O[C@@H]2O[C@H](CO)[C@@H](O)[C@H](O)[C@H]2O)c1Cc1ccc(OC(C)C)cc1` [Reference Example 37, 3-(β-D-Glucopyranosyloxy)-4-[(4-isopropoxyphenyl)methyl]-5-methyl-1H-pyrazole], the IC50 stood at 181 nM.

Molecule `CCCc1ccc(Cc2c(O[C@@H]3O[C@H](CO)[C@@H](O)[C@H](O)[C@H]3O)n[nH]c2C)cc1` [Reference Example 38, 3-(β-D-Glucopyranosyloxy)-5-methyl-4-[(4-propylphenyl)-methyl]-1H-pyrazole] had an IC50 of 441 nM.

With `CCCOc1ccc(Cc2c(O[C@@H]3O[C@H](CO)[C@@H](O)[C@H](O)[C@H]3O)n[nH]c2C)cc1` [Reference Example 40, 3-(β-D-Glucopyranosyloxy)-5-methyl-4-[(4-propoxyphenyl)-methyl]-1H-pyrazole], the IC50 was 702 nM.

Turning to `CCOc1ccc(Cc2c(O[C@@H]3O[C@H](CO)[C@@H](O)[C@H](O)[C@H]3O)n[nH]c2C)cc1` [Reference Example 41, 4-[(4-Ethoxyphenyl)methyl]-3-(β-D-glucopyranosyloxy)-5-methyl-1H-pyrazole], the IC50 came out at 185 nM.

`CSc1ccc(Cc2c(O[C@@H]3O[C@H](CO)[C@@H](O)[C@H](O)[C@H]3O)n[nH]c2C)cc1` [Reference Example 45, 3-(β-D-Glucopyranosyloxy)-5-methyl-4-[(4-methylthiophenyl)-methyl]-1H-pyrazole] returned an IC50 of 84 nM.

As for `CCc1[nH]nc(O[C@@H]2O[C@H](CO)[C@@H](O)[C@H](O)[C@H]2O)c1Cc1ccc(SC)cc1` [Reference Example 46, 5-Ethyl-3-(β-D-glucopyranosyloxy)-4-[(4-methylthiophenyl)-methyl]-1H-pyrazole], half-maximal inhibition (IC50) required 509 nM.

Molecule `Cc1[nH]nc(O[C@@H]2O[C@H](CO)[C@@H](O)[C@H](O)[C@H]2O)c1Cc1ccc(C(C)C)cc1` [Reference Example 47, 3-(β-D-Glucopyranosyloxy)-4-[(4-isopropylphenyl)methyl]-5-methyl-1H-pyrazole] showed an IC50 of 441 nM.

As to `CSc1ccc(Cc2c(O[C@@H]3O[C@H](CO)[C@@H](O)[C@H](O)[C@H]3O)n[nH]c2C(F)(F)F)cc1` [Reference Example 48, 3-(β-D-Glucopyranosyloxy)-4-[(4-methylthiophenyl)methyl]-5-trifluoromethyl-1H-pyrazole], the midpoint of inhibition, the IC50, lay at 679 nM.

As for `COc1ccc(Cc2c(O[C@@H]3O[C@H](CO)[C@@H](O)[C@H](O)[C@H]3O)n[nH]c2C(F)(F)F)cc1` [Reference Example 50, 3-(β-D-Glucopyranosyloxy)-4-[(4-methoxyphenyl)methyl]-5-trifluoromethyl-1H-pyrazole], the IC50 came to 415 nM.

The molecule `COc1ccc(Cc2c(O[C@@H]3O[C@H](CO)[C@@H](O)[C@H](O)[C@H]3O)n[nH]c2C)cc1` [Reference Example 51, 3-(β-D-Glucopyranosyloxy)-4-[(4-methoxyphenyl)methyl]-5-methyl-1H-pyrazole] displayed an IC50 of 383 nM.

Turning to `CSc1ccc(Cc2c(O[C@@H]3O[C@H](CO)[C@@H](O)[C@H](O)[C@H]3O)nn(C)c2C(F)(F)F)cc1` [Reference Example 54, 3-(β-D-Glucopyranosyloxy)-1-methyl-4-[(4-methylthiophenyl)-methyl]-5-trifluoromethylpyrazole], the IC50 was found to be 835 nM.

`Cc1ccc(Cc2c(O[C@@H]3O[C@H](CO)[C@@H](O)[C@H](O)[C@H]3O)n[nH]c2C)cc1` [Reference Example 57, 3-(β-D-Glucopyranosyloxy)-5-methyl-4-[(4-methylphenyl)-methyl]-1H-pyrazole] yielded an IC50 of 280 nM.

Molecule `CCc1ccc(Cc2c(O[C@@H]3O[C@H](CO)[C@@H](O)[C@H](O)[C@H]3O)n[nH]c2C)cc1` [Reference Example 58, 4-[(4-Ethylphenyl)methyl]-3-(β-D-glucopyranosyloxy)-5-methyl-1H-pyrazole] showed an IC50 of 190 nM.

Turning to `CCc1ccc(Cc2c(O[C@@H]3O[C@H](CO)[C@@H](O)[C@H](O)[C@H]3O)n[nH]c2C(F)(F)F)cc1` [Reference Example 60, 4-[(4-Ethylphenyl)methyl]-3-(β-D-glucopyranosyloxy)-5-trifluoromethyl-1H-pyrazole], the IC50 came to 634 nM.

In the case of `Cc1c(Cc2ccc(OC(C)C)cc2)c(O[C@@H]2O[C@H](CO)[C@@H](O)[C@H](O)[C@H]2O)nn1C(C)C` [Reference Example 72, 3-(β-D-Glucopyranosyloxy)-4-[(4-isopropoxyphenyl)methyl]-1-isopropyl-5-methylpyrazole], the midpoint of inhibition, the IC50, lay at 369 nM.
